What all share (format): cell-based
The test system of test [1] is T47D breast cancer cells, sgNTC. Kind of test: CRISPR-engineered cancer cell line viability assay (XTT), T47D sgNTC. The following applies: T47D cells with Cas9 and sgNTC, treated for three days, absolute IC50 at Y=0.5 viability, read-out: T47/D sgNTC. How it is done: (§1) T47D and HCC1954 breast cancer cells were cultured in RPMI 1640 medium containing 10% heat inactivated fetal bovine serum. Cell lines were infected with lentiviral construct(s) containing S. pyogenes Cas9 and sgRNA(s) targeting the gene(s) of interest. Infected cells were selected by antibiotic treatment. To assess cell viability in response to compound treatment, cells were seeded into 96-well plates. The next day, serial dilutions covering 10 concentrations of compound were added to the cells. Cells were treated for three days. Cell viability was determined by mitochondrial dehydrogenase activity (XTT assay, Cayman Chemical). To generate dose-response curves, data was fitted to a four-parameter Hill function and the absolute IC50 was determined at Y=0.5 viability.
Background: Formazan colour is commonly taken as a measure of viable cells.

Test [2] concerns T47D breast cancer cells, sgFUCA1. The test can be described thus: CRISPR-engineered cancer cell line viability assay (XTT), T47D/sgFUCA1. To be noted: T47D cells with Cas9 and sgFUCA1, treated for three days, absolute IC50 at Y=0.5 viability. How it is done:
as §1

Test [3] deals with senescent IMR90 primary lung fibroblasts. The test can be described thus: Cytotoxicity assay (XTT), senescent IMR90 cells. To be noted: incubated with drug for 72 hours, read-out: IMR90 SEN. How it is done:
Proliferating and senescent cells were maintained in T175 flasks under the conditions specified below, passaging upon reaching ˜90% confluency. Prior to use in cytotoxicity assays, cells were visually inspected under phase microscopy for contamination and health; if either contamination or significant cell debris was noted, cells were not used. Healthy cells were plated into the middle 60 wells of 96-well plates at a concentration of either 5,000 or 10,000 cells/well (for proliferating and senescent conditions, respectively). The outer 36 wells in each plate contained DPBS to both prevent desiccation of the interior wells and edge effects upon spectrometry readings. […] The XTT reagent undergoes an absorbance shift upon reduction through an NAD(P)H-dependent metabolic reaction, and the resulting shift can be used to quantify the viability of the remaining cells after drug treatment. Absorbance readings for each test article were taken once a suitable dynamic range was achieved (generally 0.7-1.4 absorbance units). […]
IMR90 primary lung fibroblasts were thawed into DMEM (high glucose, 4 mM L-glutamine, no sodium pyruvate) supplemented with 10% heat-inactivated fetal bovine serum and 1% penicillin-streptomycin antibiotic cocktail. […] Following this rest period, senescence induction was assessed by morphology, SA-β-gal activity, and EdU incorporation. […]

The next test has as its system senescent A549 cells. Kind of test: Cytotoxicity assay (XTT), senescent A549 cells. The following applies: A549 senescence induced with 25 μM gemcitabine, incubated with drug for 72 hours, read-out: A549 SEN. How it is done:
Proliferating and senescent cells were maintained in T175 flasks under the conditions specified below, passaging upon reaching ˜90% confluency. Prior to use in cytotoxicity assays, cells were visually inspected under phase microscopy for contamination and health; if either contamination or significant cell debris was noted, cells were not used. Healthy cells were plated into the middle 60 wells of 96-well plates at a concentration of either 5,000 or 10,000 cells/well (for proliferating and senescent conditions, respectively). The outer 36 wells in each plate contained DPBS to both prevent desiccation of the interior wells and edge effects upon spectrometry readings. After seeding cells into the 96-well plates, they were given 24 hours to attach prior to drug addition. Drug was added in triplicate across 10 different concentrations, spanning roughly 4 Log 10 units. Plates were incubated with drug for 72 hours, at which point the drug-containing media was aspirated and replaced with XTT media. The XTT reagent undergoes an absorbance shift upon reduction through an NAD(P)H-dependent metabolic reaction, and the resulting shift can be used to quantify the viability of the remaining cells after drug treatment. Absorbance readings for each test article were taken once a suitable dynamic range was achieved (generally 0.7-1.4 absorbance units). The resulting data was then background corrected and logarithmized to produce concentration-response curves.
Wild type A549 cells were thawed into DMEM (high glucose, 4 mM L-glutamine, no sodium pyruvate) supplemented with 10% heat-inactivated fetal bovine serum and 1% penicillin-streptomycin antibiotic cocktail. Cells were cultured at 37 C, 5% CO2, and atmospheric oxygen. For senescence induction, only A549s at passage 20 or lower were used. Cells were grown to 60-70% confluency before aspirating media and replacing with fresh media containing 25 μM gemcitabine. Cells were cultured without refreshing media for 72 hours. After treatment, the drug-containing media was aspirated, cells were gently washed with 1×DPBS, and fresh, drug-free media was added to the flask, at which point the cells were allowed to rest for a further 72 hours. Following this rest period, senescence induction was assessed by morphology, SA-β-gal activity, and EdU incorporation. Note: senescence induction with gemcitabine can occasionally result in spontaneous re-entry into the cell cycle in A549s. For this reason, cells should be used in various assays within 14 days of induction to avoid outgrowth of non-senescent populations. In cytotoxicity assays, proliferating cells at passage 20 or younger were included as a comparator. […]

In test [4] the test system is T47D breast cancer cells, sgGLB sgGALC. The test can be described thus: CRISPR-engineered cancer cell line viability assay (XTT), T47D/sgGLB sgGALC. To be noted: Homo sapiens, 72 h, T47D cells with Cas9 and sgGLB sgGALC, treated for three days, absolute IC50 at Y=0.5 viability. How it is done:
as §1

Read-outs that look alike come from different tables or passages of the source. Where only a bound is given, the exact number is not on record here.

`Cc1[nH]c2ccccc2c1CCNCc1ccc(/C=C/C(=O)NO[C@H]2C[C@H](O)[C@@H](O)[C@H](C)O2)cc1` [Compound 112]: the IC50 in test [1] (Homo sapiens, 72 h) amounted to 822 nM; in test [2] (Homo sapiens, 72 h), 16400 nM.
`CC(=O)O[C@@H]1[C@H](C)O[C@@H](ONC(=O)c2cnc(N3CCC(CNCc4cn(C)c5ccccc45)CC3)nc2)C[C@@H]1OC(C)=O` [Compound 107, (2S,3R,4S,6S)-3-(acetyloxy)-2-methyl-6-[({2-[4-({[(1-methyl-1H-indol-3-yl)methyl]amino}methyl)piperidin-1-yl]pyrimidin-5-yl}formamido)oxy]oxan-4-yl acetate]: the IC50 in test [1] (Homo sapiens, 72 h) is 9.4 nM; in test [2] (Homo sapiens, 72 h), 1010 nM.
Consider `Cc1[nH]c2ccccc2c1CCN(Cc1ccc(/C=C/C(=O)NO[C@H]2C[C@H](O)[C@@H](O)[C@H](C)O2)cc1)C(=O)OCc1oc(=O)oc1C` [Compound 106], for which the IC50 in test [2] (Homo sapiens, 72 h) came out at 29200 nM.
Turning to `CC(=O)O[C@H]1[C@H](C)O[C@@H](ONC(=O)/C=C/c2ccc(CNCCc3c(C)[nH]c4ccccc34)cc2)C[C@@H]1OC(C)=O` [Compound 111], the IC50 amounted to 3.78 µM in test [3] (Homo sapiens, IMR-90, IMR90 senescence induced with 300 nM doxorubicin); 243 nM with senescent A549 cells (Homo sapiens); 25.3 nM in test [1] (Homo sapiens, 72 h); 1110 nM in test [2] (Homo sapiens, 72 h).
In the case of `CC(=O)O[C@H]1[C@H](C)O[C@@H](ONC(=O)/C=C/c2ccc(CN(CCc3c(C)[nH]c4ccccc34)C(=O)OCc3oc(=O)oc3C)cc2)C[C@@H]1OC(C)=O` [Compound 105], the IC50 in test [1] (Homo sapiens, 72 h) is 53.1 nM; in test [2] (Homo sapiens, 72 h), 2860 nM.
Take `C/C(=C\C=C\CNCCc1c(C)[nH]c2ccccc12)C/C=C/C(=O)NOC1O[C@H](CO)[C@H](F)[C@H](O)[C@H]1O` (some centres unmarked) [Compound 126]: the IC50 in the test on senescent A549 cells (Homo sapiens) is over 30000 nM.
As for `Cc1[nH]c2ccccc2c1CCNCc1ccc(/C=C/C(=O)NO[C@@H]2O[C@H](CF)[C@H](O)[C@H](O)[C@H]2O)cc1` [Compound 122, (E)-N-[(2S,3R,4S,5R,6S)-6-(fluoromethyl)-3,4,5-trihydroxy-tetrahydropyran-2-yl]oxy-3-[4-[[2-(2-methyl-1H-indol-3-yl)ethylamino]methyl]phenyl]prop-2-enamide], the IC50 in test [4] was over 30 µM; in test [1] (Homo sapiens, 72 h), over 30000 nM.
As for `C[C@@H]1O[C@@H](ONC(=O)c2cnc(N3CCC(CNCc4cn(C)c5ccccc45)CC3)nc2)C[C@H](O)[C@@H]1O` [Compound 108, N-{[(2S,4S,5S,6S)-4,5-dihydroxy-6-methyloxan-2-yl]oxy}-2-[4-({[(1-methyl-1H-indol-3-yl)methyl]amino}methyl)piperidin-1-yl]pyrimidine-5-carboxamide], the IC50 in test [1] (Homo sapiens, 72 h) stood at 942 nM; in test [2] (Homo sapiens, 72 h), 8720 nM.
Turning to “(2E)-N-{[(3aR,4S,7aS)-4-methyl-2-oxo-hexahydro-[1,3]dioxolo[4,5-c]pyran-6-yl]oxy}-3-[4-({[2-(2-methyl-1H-indol-3-yl)ethyl]amino}methyl)phenyl]prop-2-enamide [Compound 109]”, the IC50 in test [3] (IMR90 senescence induced with 300 nM doxorubicin) worked out at 13.5 µM; in the test with senescent A549 cells, 2270 nM; in test [1], 330 nM; in test [2], 1360 nM.
Regarding `Cc1[nH]c2ccccc2c1CCNCc1ccc(/C=C/C(=O)NO[C@@H]2O[C@H](CO)C[C@H](O)[C@H]2O)cc1` [Compound 124, (E)-N-[(2S,3R,4S,6S)-3,4-dihydroxy-6-(hydroxymethyl)tetrahydropyran-2-yl]oxy-3-[4-[[2-(2-methyl-1H-indol-3-yl)ethylamino]methyl]phenyl]prop-2-enamide], the IC50 in test [4] is over 30 µM; in the test on senescent A549 cells (Homo sapiens) it was 67000 nM; in test [1] (Homo sapiens, 72 h), 9860 nM.
